Test results: patent US8293769B2, “CSF-1R inhibitors, compositions, and methods of use” (Novartis AG, priority 2008, dated 2012)

Key:
[1] = molecular target: T1, cKIT (Homo sapiens, UniProt P10721); assay: cKIT kinase in vitro biochemical assay (alphascreen); conditions: tested at about 1 μM; read-out: CKIT percent inhibition
T1 construct: The kinase domain of cKIT was assayed in 50 mM Hepes; purchased Upstate 14-559

[2] = system: MNFS60 (murine AML cells); assay: Cell viability assay in MCSF dependent MNFS60 cells (Cell Titer Glo); format: cell-based; conditions: Mus musculus; tested at about 1 μM; MCSF 10 ng/mL, 72 hrs; read-out: CPEC50 MNFS60MCSF percent inhibition
Method: Cell viability was assessed by Cell Titer Glo, Promega. MNFS60 (murine AML cells) were seeded in TC treated 96-well plates at a density of 5,000 cells per well in RPMI-1640, 10% FBS, and 1% Penicillin Streptomycin prior to addition of compound. Test compounds were serially diluted (3 fold) in DMSO to 500× the final concentration. For each concentration of test compound, 2 μl (500×) aliquots of compound or 100% DMSO (control) were diluted in 500 μl of culture medium that contained 2× final concentration of growth factor MCSF for 2× concentration and then diluted 1× on the cells. Final concentration of MCSF is 10 ng/mL. Cells were incubated for 72 hrs at 37° C., 5% CO2. After the incubation 100 μl Cell Titer Glo is added to each well to determine viable cells. The assay was performed according to the manufacturer's instruction (Promega Corporation, Madison, Wis. USA). Each experimental condition was performed in triplicate. Raw data was imported in Abase and EC50s calculated with XL-fit data analysis software: Relative light units of wells that contained cells without MCSF in the media and as a consequence didn't grow were defined as 100% inhibited.

[3] = molecular target: T2, cytoplasmic domain of the human CSF-1R (Homo sapiens, UniProt P07333); assay: In vitro kinase assay for CSF-1R (AlphaScreen); format: biochemical; conditions: tested at about 1 μM; read-out: CSF1RK 1 percent inhibition
T2 construct: Recombinant protein corresponding to the cytoplasmic domain of the human CSF-1R; purchased Invitrogen Corporation, Carlsbad, Calif; PV3249
T2 sequence (P07333 539-972 limits assumed): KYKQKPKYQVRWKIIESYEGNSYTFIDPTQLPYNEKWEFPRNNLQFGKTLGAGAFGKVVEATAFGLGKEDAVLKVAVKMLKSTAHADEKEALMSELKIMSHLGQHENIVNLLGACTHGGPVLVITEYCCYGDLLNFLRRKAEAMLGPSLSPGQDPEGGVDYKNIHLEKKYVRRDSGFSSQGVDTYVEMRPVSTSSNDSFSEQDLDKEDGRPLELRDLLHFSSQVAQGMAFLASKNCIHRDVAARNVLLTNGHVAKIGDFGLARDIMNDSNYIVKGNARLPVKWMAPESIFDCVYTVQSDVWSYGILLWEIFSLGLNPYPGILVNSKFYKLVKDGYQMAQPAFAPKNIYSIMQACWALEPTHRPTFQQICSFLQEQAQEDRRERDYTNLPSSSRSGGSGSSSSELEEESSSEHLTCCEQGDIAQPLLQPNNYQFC
How it was run: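 Recombinant CSF-1R cytoplasmic domain (4 nM) phosphorylated biotinylated peptide (0.05 μM) at 1.0 μM ATP in HEPES with Mg2+/Mn2+, 2 h at room temperature, compounds from 25 μM in 3-fold steps. AlphaScreen anti-phosphotyrosine PT66 detection; IC50 by non-linear regression.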

[4] = molecular target: T3, PDGFRb (Homo sapiens, UniProt P09619); assay: PDGFRb kinase in vitro biochemical assay (alphascreen); conditions: tested at about 1 μM; read-out: PDGF RK BETA percent inhibition
T3 construct: The kinase domain of PDGFRβ was assayed in 50 mM Hepes; purchased Invitrogen P3082
T3 sequence (P09619 600-962 limits assumed): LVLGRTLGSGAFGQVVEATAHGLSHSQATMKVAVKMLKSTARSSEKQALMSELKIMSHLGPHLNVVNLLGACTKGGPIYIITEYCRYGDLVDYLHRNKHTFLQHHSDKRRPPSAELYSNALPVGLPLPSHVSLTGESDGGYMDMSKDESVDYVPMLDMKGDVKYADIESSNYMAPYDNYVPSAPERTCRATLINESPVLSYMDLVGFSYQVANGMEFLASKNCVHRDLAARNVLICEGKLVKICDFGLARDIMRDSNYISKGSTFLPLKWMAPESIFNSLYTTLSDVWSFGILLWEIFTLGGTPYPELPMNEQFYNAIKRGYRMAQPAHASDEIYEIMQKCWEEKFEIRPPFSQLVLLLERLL

T1 sequence (P10721 589-937 limits assumed): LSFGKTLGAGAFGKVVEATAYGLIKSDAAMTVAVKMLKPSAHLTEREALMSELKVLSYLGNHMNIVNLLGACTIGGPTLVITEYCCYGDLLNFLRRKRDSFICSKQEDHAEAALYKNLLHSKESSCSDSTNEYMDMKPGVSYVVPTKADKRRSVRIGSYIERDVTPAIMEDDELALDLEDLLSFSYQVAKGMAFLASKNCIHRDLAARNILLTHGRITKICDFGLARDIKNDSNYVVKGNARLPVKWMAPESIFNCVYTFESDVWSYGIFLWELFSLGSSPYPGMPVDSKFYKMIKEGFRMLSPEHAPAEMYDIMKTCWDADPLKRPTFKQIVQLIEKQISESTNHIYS

Structure (SMILES)	inhibition at 1 µM [1] [%]	inhibition at 1 µM [2] [%]	inhibition at 1 µM [3] [%]	inhibition at 1 µM [4] [%]
Cn1cc(-c2cncc(Oc3ccc4nc(N[C@@H]5CCCC[C@H]5O)sc4c3)c2)cn1 [Compound 46, (1R,2R)-2-(6-(5-(1-methyl-1H-pyrazol-4-yl)pyridin-3-yloxy)benzo[d]thiazol-2-ylamino)cyclohexanol]	60	100	100	12
Nc1ccc(-c2cncc(Oc3ccc4nc(N[C@@H]5CCCC[C@H]5O)sc4c3)c2)cn1 [Compound 47, (1R,2R)-2-(6-(6′-amino-3,3′-bipyridin-5-yloxy)benzo[d]thiazol-2-ylamino) cyclohexanol]	63	100	100	1
CNC(=O)c1ccc(Oc2ccc3nc(NCC4CCCCC4)sc3c2)cn1 [Compound 48, 5-(2-(cyclohexylmethylamino)benzo [d]thiazol-6-yloxy)-N-methylpicolinamide]	22	0	96	8
CNC(=O)c1cncc(Oc2ccc3nc(N[C@@H](C)C4CCCCC4)sc3c2)n1 [Compound 51, (S)-6-(2-(1-cyclohexylethylamino)benzo[d]thiazol-6-yloxy)-N-methylpyrazine-2-carboxamide]	32	3	97	14
CNC(=O)c1ccc(Oc2ccc3nc(N[C@@H](C)C4CCCCC4)sc3c2)cn1 [Compound 53, (S)-5-(2-(1-cyclohexylethylamino)benzo[d]thiazol-6-yloxy)-N-methylpicolinamide]	12	13	98	13
O[C@@H]1CCCC[C@H]1Nc1nc2ccc(Oc3cncc(-c4cncs4)c3)cc2s1 [Compound 70, (1R,2R)-2-(6-(5-(thiazol-5-yl)pyridin-3-yloxy)benzo[d]thiazol-2-ylamino) cyclohexanol]	64	100	100	13
N#Cc1ccc(-c2cncc(Oc3ccc4nc(N[C@@H]5CCCC[C@H]5O)sc4c3)c2)cn1 [Compound 73, 5′-(2-((1R,2R)-2-hydroxycyclohexylamino)benzo[d]thiazol-6-yloxy)-3,3′-bipyridine-6-carbonitrile]	44	23	99	3
COc1cncc(-c2cncc(Oc3ccc4nc(N[C@@H]5CCCC[C@H]5O)sc4c3)c2)c1 [Compound 74, (1R,2R)-2-(6-(5′-methoxy-3,3′-bipyridin-5-yloxy)benzo [d]thiazol-2-ylamino) cyclohexanol]	59	100	100	1
O=C(c1cncc(-c2cncc(Oc3ccc4nc(N[C@@H]5CCCC[C@H]5O)sc4c3)c2)c1)N1CCOCC1 [Compound 75, (5′-(2-((1R,2R)-2-hydroxycyclohexylamino)benzo[d]thiazol-6-yloxy)-3,3′-bipyridin-5-yl) (morpholino)methanone]	28	33	100	5
CN(C)c1ncc(-c2cncc(Oc3ccc4nc(N[C@@H]5CCCC[C@H]5O)sc4c3)c2)cn1 [Compound 76, (1R,2R)-2-(6-(5-(2-(dimethylamino)pyrimidin-5-yl)pyridin-3-yloxy)benzo [d]thiazol-2-ylamino) cyclohexanol]	24	54	100	0
CCn1cc(-c2cncc(Oc3ccc4nc(N[C@@H]5CCCC[C@H]5O)sc4c3)c2)cn1 [Compound 80, (1R,2R)-2-(6-(5-(1-ethyl-1H-pyrazol-4-yl)pyridin-3-yloxy)benzo[d]thiazol-2-ylamino)cyclohexanol]	66	100	100	0
